From PMC7463734, “Identification and Validation of an Aspergillus nidulans Secondary Metabolite Derivative as an Inhibitor of the Musashi-RNA Interaction” (Cancers, 2020)
Where two headings read alike, the source gives them in different places.

T1: RBD1 of MSI1 (Homo sapiens, UniProt O43347)
T1 construct: made in house; host or cells: Escherichia coli
T1 sequence (O43347 20-107): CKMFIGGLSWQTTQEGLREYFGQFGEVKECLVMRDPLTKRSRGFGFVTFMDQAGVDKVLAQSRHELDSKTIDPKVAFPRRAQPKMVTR

T2: MSI2-RBD1 (Homo sapiens, UniProt Q96DH6)
T2 construct: made in house
T2 sequence (Q96DH6 21-111 limits assumed): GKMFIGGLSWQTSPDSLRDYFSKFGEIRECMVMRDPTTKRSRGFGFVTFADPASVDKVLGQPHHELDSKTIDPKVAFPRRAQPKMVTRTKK


What was measured:
[1] = biological target: T1, RBD1 of MSI1; test: FP dose-response (competition) disrupting RBD1-Numb^FITC complex; type: binding
Protocol: To further examine the initial hits, we tested compounds with similar scaffolds shown in Figure 3 and Figure S1 in an FP dose-response assay. […] We thus focused our further validation studies on Aza-9.
Figure 4 FP dose-response validation compounds binding to RBD1 of MSI1. Ki values were calculated based on the Kd and the dose-response curves. TEXT PRINTED IN THE PICTURE: Aza-7: IC50 [μM]: 7.1; Ki [μM]: 3.0 | Aza-8: IC50 [μM]: 4.0; Ki [μM]: 1.7 | Aza-9: IC50 [μM]: 2.8; Ki [μM]: 1.2 | Aza-10: IC50 [μM]: 7.5; Ki [μM]: 3.2 | Aza-11: IC50 [μM]: 3.9; Ki [μM]: 1.7 | Aza-12: IC50 [μM]: 6.3; Ki [μM]: 2.7 | Aza-13: IC50 [μM]: 4.5; Ki [μM]: 1.9 | Aza-14: IC50 [μM]: 11.6; Ki [μM]: 5.0 | Aza-15: IC50 [μM]: >20 | Aza-16: IC50 [μM]: 6.8; Ki [μM]: 2.9 | Aza-17: IC50 [μM]: >20
pET21a-GB1-RBD1 (MSI1-RBD1) plasmids encoding the Homo sapiens RNA binding domain 1 (RBD1, residues 20-107) of MSI1 were constructed with Mus musculus cDNAs under T7 promoter. MSI1-RBD1 proteins were expressed in Escherichia coli and purified, as previously described. Protein concentrations were determined using the Bradford assay (Bio-Rad, Hercules, CA, USA). Purification of MSI2-RBD1 protein was carried out according to the previous publication.
FP, SPR and NMR assays were carried out according to the previous publication. For computer modeling of Aza-9 to MSI1/2, the AutoDock4.2.6 program was used for predicting the binding mode. The NMR structure of MSI1-RBD1 in complex with RNA (PDB: 2RS2) and the NMR structure of apo MSI2-RBD1 (PDB: 6C8U) were used as the receptor structure. The MSI1 RBD1–RNA interface and corresponding site in MSI2-RBD1 was used as the starting point for the docking calculations. The initial three-dimensional model of the Aza-9 compound was generated using the BABEL program and was used as starting coordinates to define the ligand structure. For docking, a grid box of size 40 × 44 × 56 A with 0.375 A spacing was centered at residue F23 in MSI1-RBD1 (or F24 in MSI2-RBD1). A total of 200 docking runs were carried out using the Lamarckian genetic algorithm. The docked conformation with the lowest energy was selected as the final conformation.

[2] = biological target: T2, MSI2-RBD1; test: FP dose response of binding to MSI2-RBD1 (Numb^FITC RNA)
Text: To test whether Aza-9 can be used as a dual inhibitor to block the RNA-binding ability of both Musashi proteins, we tested Aza-9 for Musashi-2 (MSI2) binding in FP and NMR assays as previously described. […] These residues are in similar positions to F23, F65, and K93 in MSI1-RBD1 [36]. We mapped the peak intensity ratios lower than one standard deviation from the mean (Figure S2) to the structure of MSI2-RBD1. Residues with significant peak intensity reductions clustered around the RNA binding site, which is composed of the central four anti-parallel β sheets and surrounding loops (Figure 6C).
Figure 6 Aza-9 binds to MSI2-RBD1. (A) FP dose response of Aza-9 binding to MSI2-RBD1. (B) ^1H-^15N HSQC spectra of 80 μM ^15N and ^13C ILV methyl labeled MSI2-RBD1 with increasing molar ratios of AZA-9. (C) Mapping residues with peak intensity ratio lower than one standard deviation from the mean onto the structure of MSI2-RBD1. Residues with peak intensity ratio lower than 0.40 are colored red; residues with peak intensity ratios in the range of 0.40–0.54 are colored yellow. (D) Computational docking of Aza-9 bound to MSI2-RBD1. The Aza-9 is shown in sticks, and the protein is represented as spheres. Five of MSI2-RBD1 RNA binding residues (M23, G26, F64, V95, and K94) that undergo significant peak shifts are highlighted in green. […]

[3] = system: T3, GB1-RBD1 (MSI1); test: SPR binding to immobilized GB1-RBD1; set-up: species or system Homo sapiens; conditions: increasing concentrations
T3 construct: made in house; host or cells: Escherichia coli
Text: An SPR assay with the protein GB1-RBD1 and not the RNA allowed us to evaluate the binding of the compound to the protein directly.
Figure 5 Validation of the top hit Aza-9. (A) SPR analyses of Aza-9 binding to immobilized GB1-RBD1. Sensorgram representing direct binding kinetics for Aza-9 are shown in response units (RUs) as a function of time with increasing concentrations (shown as colorful lines). (B) Numb RNA pulldown. (Top) Numb^biotin (lane 4) can pull down MSI1 but not CTL^biotin (lane 3); Numb-Mut^biotin (lane 2) partially pulled down MSI1. […] (Bottom) 20 μM Aza-9 attenuated the binding between MSI1 and Numb^biotin RNA. n = 2, one representative western blot is shown. (C) Overlay of 15N-HSQC (Heteronuclear single quantum coherence spectroscopy) spectra sections of MSI1-RBD1 (black), and MSI1-RBD1 bound to Aza-9 at different ratios. (D) Computational docking of Aza-9 bound to RBD1. The Aza-9 is shown in sticks, and the protein is represented as spheres. Three of MSI1-RBD1 RNA binding residues (W29, F23, and K93) that undergo significant peak shifts are highlighted in cyan.
FP, SPR and NMR assays were carried out according to the previous publication. For computer modeling of Aza-9 to MSI1/2, the AutoDock4.2.6 program was used for predicting the binding mode. […]

[4] = system: T4, MSI1; test: Numb RNA pull-down from HCT-116 β/W cell lysate; type: cell-based, Human; conditions: 20 μM, 6 h
T4 construct: test whether biotinylated Numb RNA (Numb^biotin) can pull down MSI1 protein from the cell lysate; endogenous in cells; host or cells: HCT-116 β/W
Text: To test whether Aza-9 disrupts the binding of MSI1 to Numb RNA in cells, we carried out an RNA pull-down assay using HCT-116 β/W cell lysate. Before we tested our compound in the assay, we tested whether biotinylated Numb RNA (Numb^biotin) can pull down MSI1 protein from the cell lysate. […] Mutations in Numb (Numb-mut^biotin) attenuated its binding to MSI1 (lane 2 versus lane 4, Figure 5B and Figure S4 top panel). As a positive control, we added non-labelled Numb RNA to the system, Numb RNA completely abolished the binding between Numb^biotin and MSI1 (lane 6 versus lane 4, Figure 5B and Figure S4 top panel). […] Next, we tested whether Aza-9 can attenuate MSI1 RNA binding.
RNA pull-downs were carried out according to manufacturer’s protocol with modifications (Roche, Basel, Switzerland). Briefly, HCT-116 β/W cells were plated on 100 mm dish on day 1. The next day, cells were treated with Aza-9 (20 μM) or DMSO for 6 h, and cell lysates were collected using buffer 1 from IP kit (Roche). Protein concentrations were measured for each sample, and streptavidin beads were added for preclearance and incubated at 4 °C for 3 h. After preclearance, for each sample, 500 μg of total protein was transferred to a new tube. For positive control, unlabeled Numb (final concentration: 5 μM) was added and incubated in 4 °C. […]

[5] = system: HCT-116; test: MTT-based cytotoxicity assay; type: cell-based, Human
Protocol: In an 3-(4,5-dimethylthiazol-2-yl)-2,5-diphenyl tetrazolium bromide (MTT)-based cytotoxicity assay, free Aza-9 had no effect on the cell viability (Figure 7A), potentially due to poor cellular uptake (Figure 7B, upper left panel). We then used PEGylated liposomes to facilitate Aza-9 entry into the cells (Figure 7B, bottom panel compare to upper left panel). Compared to the free Aza-9, which has no effect at 300 µM, Aza-9-liposome (Aza-9-lip) killed colon cancer cell line HCT-116 with an IC50 around 90 µM (Figure 7A). […] Consistent with MTT, Aza-9-lip, but not liposomes, inhibited cell proliferation in a cell growth assay (Figure 7C). […] (Figure 8A). To determine whether Aza-9-lip induces apoptosis and/or autophagy in the colon cancer cell lines, we first measured caspase-3 and PARP cleavage levels. As shown in Figure 8B and Figure S5, Aza-9-lip induced caspase-3 and PARP cleavage in HCT-116 and DLD-1 cells. […]
Human colon cancer cell lines HCT-116, DLD-1, and RKO were obtained from American Type Culture Collection (ATCC) and are as described by Lan et al.. Cell growth, MTT, cell cycle analysis, western blot analysis, RT-PCR, and quantitative real-time PCR were carried out according to our previous publications. For western blot analysis with Aza-9-liposome treatment, samples were collected after 24 h; for quantitative real-time PCR, samples were collected after 48 h. […]

[6] = biological target: GB1-MSI1-RBD1 (Homo sapiens (Methods: human RBD1, …, UniProt O43347 20-107)); test: fluorescence polarization; 2-10 nM RNA; FP with 2 nM FITC-RNA; 0-2% DMSO had no significant effect (2 h incubation); buffer, salt, pH and temperature not given (cited to earlier publications); conditions: protein: recombinant; tags: GB1 (protein G B1 domain); label: 3'-FITC; single strand
[7] = FP dose-response, RBD1 of MSI1, read-out: IC50
[8] = calculated based on the Kd and the dose-response curves, read-out: Ki

| Molecule | IC50 [1, 7] [nM] | Ki [1, 8] [nM] | other results |
| --- | --- | --- | --- |
| CC[C@H](C)/C=C(C)/C=C/C1=CC2=C(Cl)C(=O)[C@](C)(OC(C)=O)C(=O)C2=CO1 [Aza-7, sclerotiorin] | 7100 | 3000 | – |
| CC[C@H](C)/C=C(C)/C=C/C1=CC2=C(Cl)C(=O)C(C)(OC(C)=O)C(=O)C2=CO1 (some centres unmarked) [Aza-8] | 4000 | 1700 | – |
| CC[C@H](C)/C=C(C)/C=C/C1=CC2=C(Br)C(=O)C(C)(OC(C)=O)C(=O)C2=CO1 (some centres unmarked) [Aza-9] | 2800 | 1200 | dose-response effect in disrupting the RBD1-Numb^FITC complex / affinity towards GB1-RBD1 [1]: highest affinity; IC50 [2]: 4100 nM; Ki [2]: 500 nM; binding to GB1-RBD1 in SPR [3]: dose-dependent binding; binding between MSI1 and Numb RNA (pull-down) [4]: attenuate, at least in part; effect on cell viability ([5]; 300 µM, HCT-116): no effect; IC50 ([5]; Homo sapiens, HCT-116, MTT): > 300000 nM |
| CC[C@H](C)/C=C(C)/C=C/C1=CC2=CC(=O)C(C)(O)C(=O)C2=CO1 (some centres unmarked) [Aza-11] | 3900 | 1700 | – |
| CC[C@H](C)/C=C(C)/C=C/C1=CC2=C(Cl)C(=O)C(C)(O)C(=O)C2=CO1 (some centres unmarked) [Aza-12] | – | – | IC50 [1]: 6300 nM; Ki [1]: 2700 nM |
| CC[C@H](C)/C=C(C)/C=C/C1=CC2=C(Br)C(=O)C(C)(O)C(=O)C2=CO1 (some centres unmarked) [Aza-13] | 4500 | 1900 | – |
| UAGGUAGUAGUUUUA (ssRNA) [NumbFITC RNA] | – | – | Kd [6]: < 250 nM |
